Laboratory results: patent publication US9481885B2, “Methods and compositions related to miR-21 and miR-29a, exosome inhibition, and cancer metastasis” (Ohio State Innovation Foundation, priority 2011, dated 2016)

Tests used:
TLR8-HEK-293 cells = assay: NF-κB activation in TLR8-HEK-293 cells treated with LLC exosomes, with or without Bafilomycin A; format: cell-based, human; conditions: TLR8-HEK-293 cells pretreated with 10 nM Bafilomycin A; P<0.0005
Description: Next, LLC cells were injected into the tails of WT and TLR7^−/− mice and the overall survival of the animals and number of lung multiplicities after necropsy was assessed. […] For the experiment with Bafilomycin A, TLR8-HEK-293 cells were seeded in a 24-well plate at a density of 200,000 cells per well. The next day cells were preincubated with 10 nM Bafilomycin A (Sigma) for 30 min and then were treated for 24 h with exosomes purified from LLC cells in the presence or absence of 10 nM Bafilomycin A. Cell supernatants were collected and harvested, and the QUANTI-Blue Assay was performed. NF-κB activity was assessed by QUANTI-Blue Assay (Invivogen). HEK-Blue-TLR7 and TLR8 293 cells allow verification of the activation of NF-κB after the stimulation of the respective TLRs. Both these cell lines were obtained by co-transfection of the TLR7 and 8 genes and an optimized secreted embryonic alkaline phosphatase reporter gene (SEAP) under the control of the […] minimal promoter fused to five NF-κB and AP-1-binding sites into HEK-293 cells. […] Levels of SEAP can be easily determined with QUANTI-Blue, a detection medium that turns purple/blue in the presence of alkaline phosphatase. […] The plate was then incubated at 37° C. for 1-3 h and SEAP levels were determined by reading the plate with a spectrophotometer at 620-655 nm (SpectraMax, Molecular Devices).

LLC cells = assay: Lung multiplicities in LLC-injected B6 mice treated with GW4869, with exosome rescue; format: in vivo, mouse; conditions: WT B6 mice injected with LLC cells; GW4869 i.p. 1.25 mg/kg/d for 5 d
Description: Finally, to assess the role of miRNAs released from lung cancer exosomes in TLR7 activation and in the metastatic process, the expression was silenced of miR-16 or of miR-21 and -29a combined in LLC cells by Locked Nucleic Acid (LNA) anti-miRNA inhibitors. After anti-miRNA transfection, the levels of the silenced miRNAs were reduced in the exosomes derived from these cells (FIG. 7F). The transfected cells were injected into the tail vein of B6 mice, and lung multiplicities were counted. […] We further investigated which miRNAs are expressed in cancer cells and adjacent normal lung tissues in mice injected with anti-scrambled LLCs or anti-miR-21/29a LLCs. Cancer cells in lung tumors developed by mice injected with anti-scrambled LLC were positive for the anti-scrambled oligonucleotide.
The in vivo rescue experiment with LLC cells was conducted in 15 male, 7-wk-old B6 mice. Mice were injected with 1.8×10^6 LLC cells in the tail vein in 300 μL of volume (T0). After 4 d (T4), i.p. injections were started for 10 mice with GW4869 (1.25 mgkg^−1d^−1), an inhibitor of exosome secretion also able to reduce the content of miRNAs in secreted exosomes, and of five mice with DMSO (a solvent of GW4869) as a control, daily for 5 d consecutively. […] All mice were killed at T18, necropsy was performed, and lung multiplicities were counted.

Compound | NF-κB activation by LLC-derived exosomes in the presence of Bafilomycin A (TLR8-HEK-293 cells) | number of lung multiplicities (LLC cells)
CO/C1=C\C(C)=C\[C@@H](C)[C@@H](O)[C@@H](C)C/C(C)=C/C=C/[C@H](OC)[C@@H]([C@@H](C)[C@@H](O)[C@H](C)[C@@]2(O)C[C@@H](O)[C@H](C)[C@@H](C(C)C)O2)OC1=O [Bafilomycin A] | significantly reduced | –
O=C(/C=C/c1ccc(/C=C/C(=O)Nc2ccc(C3=NCCN3)cc2)cc1)Nc1ccc(C2=NCCN2)cc1 [GW4869] | – | significantly lower
